What was measured:
[1] = test system: Mycosphaerella graminicola (Septoria tritici); test: Mycosphaerella graminicola (Septoria tritici) / liquid culture (Septoria blotch); type: cell-based; settings: Zymoseptoria tritici, PDB, 24° C., 4-5 days after application, read-out: control of Mycosphaerella graminicola (inhibition of growth, photometric)
How it was run: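 Cryo-stored conidia in potato dextrose broth were added to compound in DMSO at 200 ppm in microtiter plates. Plates were incubated at 24 °C and growth inhibition was measured photometrically 4–5 days after application.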

Gaeumannomyces graminis = Gaeumannomyces graminis / liquid culture (take-all of cereals); type: cell-based; settings: PDB, 24° C., 4-5 days after application, read-out: control of Gaeumannomyces graminis (inhibition of growth, photometric)
How it was run: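 Mycelial fragments in potato dextrose broth were exposed to compound from DMSO at 200 ppm in microtiter plates. Incubation at 24 °C; growth inhibition read photometrically 4-5 days after application.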

[2] = test system: Thanatephorus cucumeris (Rhizoctonia solani); test: Thanatephorus cucumeris (Rhizoctonia solani) / liquid culture (foot rot, damping-off); type: cell-based; settings: PDB, 24° C., 3-4 days after application, read-out: control of Thanatephorus cucumeris (inhibition of growth, photometric)
How it was run: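 Mycelial fragments in potato dextrose broth exposed to test compounds at 200 ppm (from DMSO solution), incubated at 24° C. Growth inhibition read photometrically 3-4 days after application.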

[3] = test system: Glomerella lagenarium (Colletotrichum lagenarium); test: Glomerella lagenarium (Colletotrichum lagenarium) / liquid culture (anthracnose); type: cell-based; settings: Colletotrichum orbiculare, PDB, 24° C., 3-4 days after application, read-out: control of Glomerella lagenarium (inhibition of growth, photometric)
How it was run: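 Cryopreserved conidia suspended in potato dextrose broth were added to compound in DMSO applied at 200 ppm. Plates incubated at 24° C; growth inhibition read photometrically 3-4 days after application.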

[4] = test system: Monographella nivalis (Microdochium nivale); test: Monographella nivalis (Microdochium nivale) / liquid culture (foot rot cereals); type: cell-based; settings: PDB, 24° C., 4-5 days after application, read-out: control of Monographella nivalis (inhibition of growth, photometric)
How it was run: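 Cryostored conidia in potato dextrose broth were added to test compound dispensed from DMSO at 200 ppm. Plates were kept at 24° C, and growth inhibition was read photometrically 4-5 days after application.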

Pythium ultimum = Pythium ultimum / liquid culture (seedling damping off); type: cell-based; settings: Globisporangium ultimum, potato dextrose broth, 24° C., 2-3 days after application, read-out: control of Pythium ultimum (inhibition of growth, photometric)
Description: Pythium ultimum/Liquid Culture (Seedling Damping Off) Mycelia fragments and oospores of a newly grown liquid culture of the fungus were directly mixed into nutrient broth (potato dextrose broth). After placing a DMSO solution of test compound into a 96-well format microtiter plate at an application rate of 200 ppm, the nutrient broth containing the fungal mycelia/spore mixture was added. The test plates were incubated at 24° C. and the inhibition of growth was determined photometrically 2-3 days after application.

Plasmopara viticola = Plasmopara viticola / grape / leaf disc preventative; type: in vivo; settings: foliar, grape vine leaf disks, inoculated 1 day after application, assessed 6-8 days after application, read-out: control of Plasmopara viticola (percent disease control compared to untreated)
Sclerotinia sclerotiorum = Sclerotinia sclerotiorum liquid culture (cottony rot / white mold); type: cell-based; settings: PDB, 24° C., 3-4 days after application, read-out: control of Sclerotinia sclerotiorum (inhibition of growth, photometric)
How it was run: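 Mycelia fragments of Sclerotinia sclerotiorum in potato dextrose broth were added to compound in DMSO. Cultures incubated at 24° C; growth inhibition determined photometrically 3-4 days after application.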

[5] = test system: Puccinia recondita f. sp. Tritici; test: Puccinia recondita f. sp. tritici / wheat / leaf disc preventative (brown rust); type: in vivo; settings: foliar, wheat leaf segments cv Kanzler, inoculated 1 day after application, assessed 7-9 days after application, read-out: control of Puccinia recondita f. sp. Tritici (percent disease control compared to untreated)
How it was run: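 Leaf segments of wheat cv Kanzler on agar were sprayed with formulated compound at 200 ppm and inoculated with spores 1 day later. Incubation was at 19° C, 75% relative humidity and 12/12 h light/dark. Activity was scored 7-9 days after application as percent disease control versus untreated.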

[6] = test system: Botryotinia fuckeliana (Botrytis cinerea); test: Botryotinia fuckeliana (Botrytis cinerea) / liquid culture (gray mould); type: cell-based; settings: Vogels broth, 24° C., 3-4 days after application, read-out: control of Botryotinia fuckeliana (inhibition of growth, photometric)
How it was run: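 Botrytis cinerea conidia in Vogels broth were added to test compound applied from DMSO at 200 ppm. Incubation at 24 °C; growth inhibition read photometrically 3-4 days after application.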

[7] = test system: Phaeosphaeria nodorum (Septoria nodorum); test: Phaeosphaeria nodorum (Septoria nodorum) / wheat / leaf disc preventative (glume blotch); type: in vivo; settings: Parastagonospora nodorum, foliar, wheat leaf segments cv Kanzler, inoculated 2 days after application, assessed 5-7 days after application, read-out: control of Phaeosphaeria nodorum (percent disease control compared to untreated)
How it was run: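 Wheat leaf segments (cv Kanzler) on agar sprayed with compound at 200 ppm, inoculated with spores 2 days later. Incubated at 20° C., 75% relative humidity, 12/12 h light/dark; percent disease control versus untreated scored 5-7 days after application.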

Pyrenophora teres = Pyrenophora teres / barley / leaf disc preventative (net blotch); type: in vivo; settings: foliar, barley leaf segments cv Hasso, inoculated two days after application, assessed 5-7 days after application, read-out: control of Pyrenophora teres (disease control compared to untreated)
How it was run: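 Barley cv Hasso leaf segments on agar sprayed with compound at 200 ppm, inoculated with spores two days later. Kept at 20 °C, 65% RH, 12/12 h light; disease control versus untreated scored 5-7 days after application.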

[8] = test system: Mycosphaerella arachidis (Cercospora arachidicola); test: Mycosphaerella arachidis (Cercospora arachidicola) / liquid culture (early leaf spot); type: cell-based; settings: PDB, 24° C., 4-5 days after application, read-out: control of Mycosphaerella arachidis (inhibition of growth, photometric)
How it was run: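 Conidia suspended in potato dextrose broth and added to test compound from DMSO solution at 200 ppm. Incubated at 24 °C; growth inhibition read photometrically 4-5 days after application.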

[9] = test system: Blumeria graminis f. Sp. Tritici (Erysiphe graminis f. Sp. Tritici); test: Blumeria graminis f. sp. tritici / wheat / leaf disc preventative (powdery mildew on wheat); type: in vivo; settings: foliar, wheat leaf segments cv. Kanzler, inoculated 1 day after application, assessed 6-8 days after application, read-out: control of Blumeria graminis (percent disease control compared to untreated)
Description: Blumeria graminis f. Sp. Tritici (Erysiphe graminis f. Sp. Tritici)/Wheat/Leaf Disc Preventative (Powdery Mildew on Wheat):
Wheat leaf segments cv. Kanzler were placed on agar in a 24-well plate and sprayed with the formulated test compound diluted in water at an application rate of 200 ppm. The leaf disks were inoculated by shaking powdery mildew infected plants above the test plates 1 day after application. The inoculated leaf disks were incubated at 20° C. and 60% relative humidity under a light regime of 24 h darkness followed by 12 h/12 h (dark/light) in a climate chamber and the activity of a compound was assessed as percent disease control compared to untreated when an appropriate level of disease damage appears on untreated check leaf segments (6-8 days after application). The following compounds gave at least 80% control of Blumeria graminis at 200 ppm when compared to untreated control leaf disks under the same conditions, which show extensive disease development: 2, 13, 23, 50, 59, 61, 67, 75, 85, 86, 89, 90, 93, 102, 103, 107, 134, 136, 137, 138, 139, 141, 145, 151, 153, 154, 163, 173, 174

Fusarium culmorum = test: microbe, parasite or virus in culture; type: cell-based; settings: read-out: control of Fusarium culmorum (inhibition of growth, photometric)

SMILES	inhibition at 20 ppm [1] [%]	inhibition at 20 ppm (Gaeumannomyces graminis) [%]	inhibition at 20 ppm [2] [%]	inhibition at 20 ppm [3] [%]	inhibition at 20 ppm [4] [%]	inhibition at 20 ppm (Pythium ultimum) [%]	pest or weed control at 200 ppm (Plasmopara viticola) [%]	inhibition at 20 ppm (Sclerotinia sclerotiorum) [%]	pest or weed control at 200 ppm [5] [%]	inhibition at 20 ppm [6] [%]	pest or weed control at 200 ppm [7] [%]	pest or weed control at 200 ppm (Pyrenophora teres) [%]	inhibition at 20 ppm [8] [%]	melting point [°C]	pest or weed control at 200 ppm [9] [%]	inhibition at 20 ppm (Fusarium culmorum) [%]
CCCn1c(-n2ncnc2N)nc2cncc(-c3ccccc3Cl)c21 [Compound 172, 2-[7-(2-chlorophenyl)-1-propyl-imidazo[4,5-c]pyridin-2-yl]-1,2,4-triazol-3-amine]	≥ 80	≥ 80	≥ 80	≥ 80	≥ 80	≥ 80	≥ 80	≥ 80	≥ 80	≥ 80	≥ 80	≥ 80				
CCn1c(-n2ncnc2N)nc2cncc(-c3ccc(F)cc3F)c21 [Compound 80, 2-[7-(2,4-difluorophenyl)-1-ethylimidazo[4,5-c]pyridin-2-yl]-1,2,4-triazol-3-amine]	≥ 80	≥ 80	≥ 80	≥ 80	≥ 80	≥ 80		≥ 80	≥ 80	≥ 80	≥ 80	≥ 80	≥ 80			
CCCCc1nc(N)n(-c2nc3cnccc3n2C2CCCCC2)n1 [Compound 6, 5-butyl-2-(1-cyclohexylimidazo[4,5-c]pyridin-2-yl)-1,2,4-triazol-3-amine]				≥ 80		≥ 80								163 to 165		
CCn1c(-n2ncnc2N)nc2cncc(-c3ccc(OC)nc3)c21 [Compound 59, 2-[1-ethyl-7-(6-methoxypyridin-3-yl)imidazo[4,5-c]pyridin-2-yl]-1,2,4-triazol-3-amine]	≥ 80	≥ 80	≥ 80	≥ 80		≥ 80			≥ 80	≥ 80	≥ 80	≥ 80			≥ 80	
CCn1c(-n2ncnc2N)nc2cncc(-c3cc(Cl)ccc3Cl)c21 [Compound 88, 2-[7-(2,5-dichlorophenyl)-1-ethylimidazo[4,5-c]pyridin-2-yl]-1,2,4-triazol-3-amine]	≥ 80	≥ 80	≥ 80	≥ 80	≥ 80			≥ 80	≥ 80	≥ 80	≥ 80	≥ 80				≥ 80
CCn1c(-n2ncnc2N)nc2cncc(-c3ccccc3C#N)c21 [Compound 85, 2-[2-(5-amino-1,2,4-triazol-1-yl)-1-ethylimidazo[4,5-c]pyridin-7-yl]benzonitrile]	≥ 80	≥ 80	≥ 80	≥ 80		≥ 80			≥ 80	≥ 80		≥ 80			≥ 80	
CCn1c(-n2ncnc2N)nc2cncc(-c3ccc(Cl)c(Cl)c3F)c21 [Compound 100, 2-[7-(3,4-dichloro-2-fluorophenyl)-1-ethylimidazo[4,5-c]pyridin-2-yl]-1,2,4-triazol-3-amine]	≥ 80	≥ 80	≥ 80	≥ 80	≥ 80			≥ 80	≥ 80	≥ 80	≥ 80	≥ 80				≥ 80
CCn1c(-n2ncnc2N)nc2cncc(-c3ccc(Cl)cc3Cl)c21 [Compound 38, 2-[7-(2,4-dichlorophenyl)-1-ethylimidazo[4,5-c]pyridin-2-yl]-1,2,4-triazol-3-amine]	≥ 80	≥ 80	≥ 80	≥ 80	≥ 80	≥ 80		≥ 80	≥ 80	≥ 80	≥ 80	≥ 80	≥ 80			
CCn1c(-n2ncnc2N)nc2cncc(C)c21 [Compound 22, 2-(1-ethyl-7-methylimidazo[4,5-c]pyridin-2-yl)-1,2,4-triazol-3-amine]	≥ 80	≥ 80	≥ 80	≥ 80	≥ 80	≥ 80		≥ 80	≥ 80	≥ 80	≥ 80	≥ 80	≥ 80	194 to 198		
CCn1c(-n2ncnc2N)nc2cncc(-c3ccccc3)c21 [Compound 19, 2-(1-ethyl-7-phenylimidazo[4,5-c]pyridin-2-yl)-1,2,4-triazol-3-amine]	≥ 80	≥ 80	≥ 80	≥ 80	≥ 80	≥ 80	≥ 80		≥ 80	≥ 80	≥ 80	≥ 80		247 to 251		
